# Assay results as given in patent US20140315876A1, “BETA-LACTAMASE INHIBITORS” (priority 2013, published 2014).
# Counter-ions that a name gives are not always drawn.
# What was measured:
# [1] = system: bacterial strains that express KPC β-lactamases; assay: Synergy MIC / standard BLI potentiation MIC assay, strains expressing KPC β-lactamases; type: cell-based; conditions: more active for at least one KPC strain and/or better spectrum of activity than Avibactam; in the presence of a β-lactam
# Method: (§1) The experimental protocol was performed according to Clinical and Laboratory Standards Institute (CLSI) guidelines with modifications as described below (CLSI guidelines can be derived from the CLSI document M07-A9 published in January 2012: “Methods for Dilution Antimicrobial Susceptibility Tests for Bacteria That Grow Aerobically; Approved Standard-Ninth Edition”).
# (§2) To prepare for MIC testing, frozen glycerol stocks of clinical isolates (Klebsiella pneumoniae, Eschericia coli, Enterobacter spp, Citrobacter spp, or Pseudomonas aeruginosa) were used to streak for isolated colonies on rich, non-selective, tryptic soy agar containing 5% sheep's blood (TSAB). Frozen glycerol stocks of laboratory engineered, isogenic E. coli strains, which contain cloned β-lactamase expressing plasmids were used to streak for isolated colonies on rich, selective LB agar supplemented with 25 μg/mL tetracycline to maintain the plasmid. All strains were incubated at 37° C. for 18-24 hrs.
# (§3) On the day of testing, primary cultures were started by scraping off 5-10 colonies from the TSAB plates containing clinical strains or the tetracycline supplemented LB plates containing engineered strains. The clinical strain material was suspended in ˜5 mL of cation adjusted Mueller Hinton Broth (CAMHB) in 14 mL culture tubes. The engineered strain material was suspended in CAMHB (supplemented with 25 μg/mL tetracycline) in 14 mL culture tubes. All strains were incubated at 37° C. with aeration (200 rpm) for ˜2 hrs until the optical density at 600 nm (OD600) was ≧0.1.
# (§4) The two compound components of the assay were each diluted in CAMHB and added to the 96-well broth microdilution assay plates. 50 μL of the β-lactam was added to each well of the assay plate in 2-fold dilutions with final concentrations ranging from 128 to 0.13 μg/mL. 25 μL of the BLI compound was added to all wells in the broth microdilution plates at a final concentration of 4 μg/mL. Inoculum cultures were prepared by standardizing the primary cultures to OD600=0.1 and then adding 20 μL of the adjusted primary culture per 1 mL CAMHB for clinical strains or CAMHB (supplemented with tetracycline at 100 μg/mL) for engineered strains, so that the final inoculum density was ˜10^5 colony forming units per milliliter. Diluted inoculum cultures were used to inoculate 25 μL per well in 96-well broth microdilution assay plates. The final volume of each well was 100 μL and contained a β-lactam at different concentrations, a BLI compound at 4 μg/mL concentration, the bacterial culture at an OD600 of approximately 0.001 and when necessary tetracycline at 25 μg/mL.
# (§5) Plates were incubated for 18-20 hours at 37° C. with aeration (200 rpm). Following incubation, growth was confirmed visually placing plates over a viewing apparatus (stand with a mirror underneath) and then OD600 was measured using a SpectraMax 340PC384 plate reader (Molecular Devices, Sunnyvale, Calif.). Growth was defined as turbidity that could be detected with the naked eye or achieving minimum OD600 of 0.1. MIC values were defined as the lowest concentration producing no visible turbidity.
# (§6) The synergy MIC (sMIC) assay determines the concentration of the BLI required to potentiate the activity of a fixed concentration of a β-lactam antibiotic against β-lactamase producing bacterial strains. The experimental protocol was performed according to Clinical and Laboratory Standards Institute (CLSI) guidelines with modifications as described below (CLSI guidelines can be derived from the CLSI document M07-A9 published in January 2012: “Methods for Dilution Antimicrobial Susceptibility Tests for Bacteria That Grow Aerobically; Approved Standard-Ninth Edition”). […]
# [2] = system: bacterial strains that express the class D cephalosporinase OXA-15; assay: Synergy MIC / standard BLI potentiation MIC assay, strains expressing OXA-15; type: cell-based, E. coli; conditions: in the presence of a β-lactam; comparator Avibactam (comparator compound CCC)
# Method: as §1, §2, §3, §4, §5, §6
SMILES,"activity and/or spectrum of activity against bacterial strains that express KPC β-lactamases, compared with Avibactam [1]","activity against bacterial strains that express the class D cephalosporinase OXA-15, compared with Avibactam [2]"
"N[C@@H]1CN[C@H](c2nnc([C@@H]3CC[C@@H]4CN3C(=O)N4OS(=O)(=O)O)o2)C1 [Compound 760, (2S,5R)-2-(5-((2S,4S)-4-aminopyrrolidin-2-yl)-1,3,4-oxadiazol-2-yl)-7-oxo-1,6-diazabicyclo[3.2.1]octan-6-yl hydrogen sulfate]",more active than Avibactam,more active than Avibactam
"N=C(N)NCCc1nnc([C@@H]2CC[C@@H]3CN2C(=O)N3OS(=O)(=O)O)s1 [Compound 794, (2S,5R)-2-(5-(2-guanidinoethyl)-1,3,4-thiadiazol-2-yl)-7-oxo-1,6-diazabicyclo[3.2.1]octan-6-yl hydrogen sulfate]",more active than Avibactam,more active than Avibactam
"NC1(Cc2nnc([C@@H]3CC[C@@H]4CN3C(=O)N4OS(=O)(=O)O)o2)CC1 [Compound 724, (2S,5R)-2-(5-((1-aminocyclopropyl)methyl)-1,3,4-oxadiazol-2-yl)-7-oxo-1,6-diazabicyclo[3.2.1]octan-6-yl hydrogen sulfate]",more active than Avibactam,more active than Avibactam
"N[C@H]1C[C@H](c2nnc([C@@H]3CC[C@@H]4CN3C(=O)N4OS(=O)(=O)O)o2)C1 [Compound 727, (2S,5R)-2-(5-((1r,3S)-3-aminocyclobutyl)-1,3,4-oxadiazol-2-yl)-7-oxo-1,6-diazabicyclo[3.2.1]octan-6-yl hydrogen sulfate]",more active than Avibactam,more active than Avibactam
"N=C(N)N[C@H]1C[C@@H](c2nnc([C@@H]3CC[C@@H]4CN3C(=O)N4OS(=O)(=O)O)o2)C1 [Compound 749, (2S,5R)-2-(5-((1s,3R)-3-guanidinocyclobutyl)-1,3,4-oxadiazol-2-yl)-7-oxo-1,6-diazabicyclo[3.2.1]octan-6-yl hydrogen sulfate]",more active than Avibactam,more active than Avibactam
"O=C1N2C[C@@H](CC[C@H]2c2nnc(C3CCNCC3)o2)N1OS(=O)(=O)O [Compound 711, (2S,5R)-7-oxo-2-(5-(piperidin-4-yl)-1,3,4-oxadiazol-2-yl)-1,6-diazabicyclo[3.2.1]octan-6-yl hydrogen sulfate]",more active than Avibactam,more active than Avibactam
"NCCc1nnc([C@@H]2CC[C@@H]3CN2C(=O)N3OS(=O)(=O)O)o1 [Compound 703, (2S,5R)-2-(5-(2-aminoethyl)-1,3,4-oxadiazol-2-yl)-7-oxo-1,6-diazabicyclo[3.2.1]octan-6-yl hydrogen sulfate]",more active than Avibactam,more active than Avibactam
"CNCCc1nnc([C@@H]2CC[C@@H]3CN2C(=O)N3OS(=O)(=O)O)o1 [Compound 722, (2S,5R)-2-(5-(2-(methylamino)ethyl)-1,3,4-oxadiazol-2-yl)-7-oxo-1,6-diazabicyclo[3.2.1]octan-6-yl hydrogen sulfate]",more active than Avibactam,more active than Avibactam
